Measured values published in patent US11149062B2, “HDAC inhibitors and methods of treatment using the same” (UWM Research Foundation, Inc., priority 2015, dated 2021).

Columns and labels:
[1] = test system: colon (HCT-116), cervical (HeLa), and renal (RFX393) tumor cell lines; test: MTT antiproliferative assay, all three tumor cell lines; assay type: cell-based; conditions: HCT-116, HeLa, RFX393; summary of Table 3; read-out: GI50 values against all three tumor cell lines
Protocol: (§1) Briefly, the tumor cells (1×10^4 cells/well) were seeded in 96-well microtiter plates and incubated for 24 h at 37° C. Following incubation, the media was replaced with fresh media containing the above compounds at concentrations ranging from 1 μM to 1 pM diluted in DMSO and incubated for an additional 48 h. Drugs were run in duplicate or triplicate and control cells received fresh media with DMSO concentration equivalent to the treatment groups. […] After aspirating the culture medium, 200 μL of DMSO was added to dissolve the precipitate and the resulting solution was measured for absorbance at 570 nm with a reference wavelength of 690 nm using a microplate reader (Infinite M200 Pro TECAN).

[2] = 10 mg/mL cpd in 20% DMSO/saline
in vivo = conditions: BALB/c, mouse, in vivo, ip
Description: (§2) BALB/c mice were purchased from The Jackson Laboratory (Bar Harbor, Me.) and used between 7 and 10 weeks of age. Mice were housed in a conventional animal vivarium and were given free access to food and water. All studies and procedures were approved by the Animal Care and Use Committee of the University of Wisconsin, Milwaukee.
(§3) Each animal was initially weighed using a digital scale and then intraperitoneally (IP) injected with the compounds (listed in Table 2). A single mouse was given a single IP dose of 200 mg/kg, body weight, a second mouse received a dose of 100 mg/kg and a third mouse received a single dose of 50 mg/kg. The mice were observed and weighed every other day for a period of 2 weeks. They were euthanized if they lost more than 20% of their body weight or if there were other signs of significant toxicity. […] This process was repeated until a tolerated dose was found, and the MTD value was determined.
(§4) To determine the MTD in vivo, the compounds listed above were injected intraperitoneally into BALB/c mice and morbidity and mortality were monitored over two weeks.

Recombinant human HDAC4 = target: T1, Recombinant human HDAC4 (Homo sapiens, UniProt P56524); test: HDAC-Glo I/II assay, HDAC4; assay type: biochemical; conditions: Class IIa HDAC; compounds reduced by TCEP prior to assay; read-out: IC50 of HDAC4
T1 construct: purchased BPS Bioscience Inc
T1 sequence (P56524 whole entry): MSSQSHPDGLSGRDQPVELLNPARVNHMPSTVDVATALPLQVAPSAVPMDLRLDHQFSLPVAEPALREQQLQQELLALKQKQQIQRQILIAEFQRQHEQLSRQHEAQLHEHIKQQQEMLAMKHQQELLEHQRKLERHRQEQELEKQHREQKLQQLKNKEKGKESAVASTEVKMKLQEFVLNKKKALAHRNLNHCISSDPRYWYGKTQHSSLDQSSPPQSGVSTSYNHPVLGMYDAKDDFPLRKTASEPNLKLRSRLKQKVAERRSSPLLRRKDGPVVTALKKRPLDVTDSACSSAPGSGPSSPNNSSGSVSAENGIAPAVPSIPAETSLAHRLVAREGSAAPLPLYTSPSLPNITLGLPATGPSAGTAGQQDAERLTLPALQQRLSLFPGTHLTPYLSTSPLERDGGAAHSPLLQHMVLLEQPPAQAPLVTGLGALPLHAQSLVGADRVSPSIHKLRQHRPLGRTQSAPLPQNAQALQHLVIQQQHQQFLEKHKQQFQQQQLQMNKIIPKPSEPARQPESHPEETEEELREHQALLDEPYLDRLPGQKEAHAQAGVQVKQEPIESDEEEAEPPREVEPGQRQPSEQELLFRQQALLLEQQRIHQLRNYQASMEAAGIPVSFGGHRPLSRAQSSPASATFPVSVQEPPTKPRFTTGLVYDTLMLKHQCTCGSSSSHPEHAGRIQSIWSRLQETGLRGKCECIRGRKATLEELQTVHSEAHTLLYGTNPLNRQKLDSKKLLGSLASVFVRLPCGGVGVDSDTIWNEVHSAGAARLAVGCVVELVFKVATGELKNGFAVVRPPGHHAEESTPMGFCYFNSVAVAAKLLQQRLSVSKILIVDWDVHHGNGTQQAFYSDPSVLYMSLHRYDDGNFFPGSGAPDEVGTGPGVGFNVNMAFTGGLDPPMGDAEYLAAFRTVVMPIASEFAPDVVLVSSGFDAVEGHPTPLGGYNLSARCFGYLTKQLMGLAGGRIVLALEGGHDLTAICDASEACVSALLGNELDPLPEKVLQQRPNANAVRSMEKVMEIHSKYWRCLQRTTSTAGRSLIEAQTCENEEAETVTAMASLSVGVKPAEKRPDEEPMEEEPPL
Protocol: (§5) The purified compounds of all fragments and natural product derivatives were evaluated for inhibitory effects on three different classes of HDAC proteins (class I, IIa, and IIb). […] All activity was determined by using a fluorescence-based in vitro assay. Class I HDAC proteins that were evaluated were HDAC1, HDAC2, HDAC3, HDAC8, HDAC4, and HDAC6. Class IIa HDAC protein were HDAC4 and the Class IIb HDAC protein were HDAC6.
(§6) HDAC-Glo™ I/II Assay and Screening System (Promega) was used to determine the HDAC inhibitory activity. Recombinant human HDAC1, HDAC2, HDAC3, HDAC4, HDAC6 and HDAC8 were purchased from BPS Bioscience Inc. The inhibitory activities of the test compounds against recombinant HDAC were performed according to reagent suppliers' protocols.
(§7) All test compounds were firstly dissolved in DMSO to make 10 mM stock solution. A certain amount of stock solution was diluted to 1 mM by DMSO and then reduced by tris(2-carboxyethyl)phosphine hydrochloride (TCEP) in a molar ration of 1:1.5 for 20 min at ambient temperature prior to being assayed. After reduction, a series of fivefold dilutions of each reduced compound were prepared with HDAC-Glo buffer and 25 μL of each dilution was added into a well on a 96-well plate. HDAC enzymes were diluted to the desired concentrations with HDAC-Glo buffer and 25 μL of each diluted enzyme was dispensed into a well to mix with 25 μL of testing compound at room temperature for 30-60 seconds. After the reaction mixture had been incubated at room temperature for 1 hour, 50 μL of HDAC-Glo reagent was added to each reaction well and mixed up for 30-60 seconds. Finally, the plate was incubated at room temperature for an additional 30 minutes before the luminescence was measured on a Synergy HT plate reader (Bio-Tek). The luminescence intensity data were analyzed using GraphPad Prism 5 (GraphPad Software). In the absence of any test compound, the luminescence intensity (I100) in each data set was defined as 100% activity. In the absence of both of HDAC enzymes and test compound, the luminescence intensity (I0) in each data set was defined as 0% activity. The relative activity (%) in the presence of each compound was calculated according to the following equation: % activity=(I−I0)/(I100−I0), where I=the luminescence intensity if a compound is present in the reaction. Experiments were performed in triplicate and the calculated mean values were used for plotting.

Recombinant human HDAC2 = target: T2, Recombinant human HDAC2 (Homo sapiens, UniProt Q92769); test: HDAC-Glo I/II assay, HDAC2; assay type: biochemical; conditions: Class I HDAC; compounds reduced by TCEP prior to assay
T2 construct: purchased BPS Bioscience Inc
T2 sequence (Q92769 whole entry): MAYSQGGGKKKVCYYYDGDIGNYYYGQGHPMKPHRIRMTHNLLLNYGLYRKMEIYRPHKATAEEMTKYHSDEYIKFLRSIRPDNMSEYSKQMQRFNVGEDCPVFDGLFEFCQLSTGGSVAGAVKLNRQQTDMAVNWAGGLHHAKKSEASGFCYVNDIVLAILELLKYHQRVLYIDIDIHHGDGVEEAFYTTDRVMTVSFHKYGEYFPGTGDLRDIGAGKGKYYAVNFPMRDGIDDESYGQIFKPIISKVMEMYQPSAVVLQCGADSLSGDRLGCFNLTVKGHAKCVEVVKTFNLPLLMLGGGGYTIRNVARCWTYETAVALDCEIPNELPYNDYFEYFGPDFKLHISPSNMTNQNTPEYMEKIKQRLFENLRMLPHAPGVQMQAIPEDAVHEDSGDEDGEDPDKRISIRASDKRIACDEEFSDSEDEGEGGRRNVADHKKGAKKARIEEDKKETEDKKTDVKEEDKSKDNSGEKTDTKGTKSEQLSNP
Protocol: as §5, §6, §7

HCT-116 (colon cancer) = test: MTT antiproliferative assay, HCT-116; assay type: cell-based; conditions: Homo sapiens, HCT-116; MTT, 48 h; read-out: Antiproliferative Activity GI50, Colon HCT-116
Protocol: as §1

Recombinant human HDAC1 = target: T3, Recombinant human HDAC1 (Homo sapiens, UniProt Q13547); test: HDAC-Glo I/II assay, HDAC1; assay type: biochemical; conditions: for IC50: Class I HDAC, compounds reduced by TCEP prior to assay, read-out: IC50 of HDAC1; for Class I selectivity Ratio HDAC 1/HDAC8: ratio of IC50 values
T3 construct: purchased BPS Bioscience Inc
T3 sequence (Q13547 whole entry): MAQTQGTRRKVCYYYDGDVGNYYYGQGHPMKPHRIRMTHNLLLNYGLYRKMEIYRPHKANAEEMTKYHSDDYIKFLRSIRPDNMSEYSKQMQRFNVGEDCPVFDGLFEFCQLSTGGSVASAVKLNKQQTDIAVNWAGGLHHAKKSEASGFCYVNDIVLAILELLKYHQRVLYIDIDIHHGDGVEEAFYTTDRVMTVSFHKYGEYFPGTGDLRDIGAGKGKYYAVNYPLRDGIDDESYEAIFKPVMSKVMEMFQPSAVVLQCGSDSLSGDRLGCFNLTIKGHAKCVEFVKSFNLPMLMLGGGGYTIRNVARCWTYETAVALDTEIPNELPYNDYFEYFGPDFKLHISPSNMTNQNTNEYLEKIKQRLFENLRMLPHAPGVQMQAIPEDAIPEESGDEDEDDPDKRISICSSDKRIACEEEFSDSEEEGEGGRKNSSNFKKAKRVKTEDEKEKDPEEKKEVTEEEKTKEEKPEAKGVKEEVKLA
Protocol: as §5, §6, §7

Recombinant human HDAC8 = target: T4, Recombinant human HDAC8 (Homo sapiens, UniProt Q9BY41); test: HDAC-Glo I/II assay, HDAC8; assay type: biochemical; conditions: Class I HDAC; compounds reduced by TCEP prior to assay
T4 construct: purchased BPS Bioscience Inc
T4 sequence (Q9BY41 1-377): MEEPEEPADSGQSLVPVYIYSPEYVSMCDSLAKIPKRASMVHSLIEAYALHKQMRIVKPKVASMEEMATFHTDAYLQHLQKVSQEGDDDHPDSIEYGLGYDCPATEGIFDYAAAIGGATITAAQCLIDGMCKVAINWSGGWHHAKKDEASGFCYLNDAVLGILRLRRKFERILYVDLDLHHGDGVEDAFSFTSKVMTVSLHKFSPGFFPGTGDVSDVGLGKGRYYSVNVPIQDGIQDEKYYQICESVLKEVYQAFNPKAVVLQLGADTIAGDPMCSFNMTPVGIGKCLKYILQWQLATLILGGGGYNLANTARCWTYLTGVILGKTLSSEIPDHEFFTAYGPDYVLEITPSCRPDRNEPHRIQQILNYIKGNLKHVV
Protocol: as §5, §6, §7

BALB/c mice = test: in vivo; conditions: BALB/c, mouse, in vivo, ip, 2 weeks
Description: as §2, §3, §4

SKOV-3 (ovarian) = test: MTT antiproliferative assay, SKOV-3; assay type: cell-based; conditions: Homo sapiens, SK-OV-3; MTT, 48 h; read-out: Antiproliferative Activity GI50, Ovarian SKOV-3
Protocol: as §1

COLO-205 (colon cancer) = test: MTT antiproliferative assay, COLO-205; assay type: cell-based; conditions: Homo sapiens, COLO 205; MTT, 48 h; read-out: Antiproliferative Activity GI50, Colon COLO-205
Protocol: as §1

Compound	GI50 [1] [µM]	Solubility [2]	MTD at 2 weeks (in vivo) [mg/kg]	IC50 (Recombinant human HDAC4) [µM]	IC50 (Recombinant human HDAC2) [µM]	GI50 (HCT-116 (colon cancer)) [µM]	IC50 (Recombinant human HDAC1) [µM]	Class I selectivity Ratio HDAC 1/HDAC8 (Recombinant human HDAC1)	IC50 (Recombinant human HDAC8) [µM]	MTD (toxicity in healthy BALB/c mice) (BALB/c mice) [mg/kg]	GI50 (SKOV-3 (ovarian)) [µM]	GI50 (COLO-205 (colon cancer)) [µM]
CSCC[C@H]1NC(=O)CC(O)/C=C/CCSSC[C@H](C(=O)O)NC1=O (stereo partly drawn) [TDF3, (4S,7R,12E)-11-hydroxy-7-[2-(methylsulfanyl)ethyl]-6,9-dioxo-1,2-dithia-5,8-diazacyclopentadec-12-ene-4-carboxylic acid]	0.6	Soluble	> 200	> 1000	0.0875	0.3	0.0229	0.00036	62.8	–	–	–
COC(=O)[C@H]1CSSCC/C=C/C(O)CC(=O)N[C@H](CCSC)C(=O)N1 (stereo partly drawn) [TDF3m, Methyl (4S,7R,12E)-11-hydroxy-7-[2-(methylsulfanyl)ethyl]-6,9-dioxo-1,2-dithia-5,8-diazacyclopentadec-12-ene-4-carboxylate]	0.4	Partially soluble	> 200	> 1000	0.0942	0.2	0.0125	0.00028	63	>200	0.5	0.9
